According to article PMC6263361 (Molecules, 2011):
Like-named read-outs stand apart in the source and are kept apart here.

Legend:
GST-E2F-4 = biological target: T1, GST-E2F-4 (Homo sapiens, UniProt Q16254); assay: SPR interaction analysis with immobilized recombinant GST-E2F-4; format: binding; settings: for affinity for E2F-4, fold weaker than that of etoposide: relative to etoposide
T1 construct: The 1239-bp cDNA fragment of E2F-4 was amplified from I.M.A.G.E cDNA clone; made in house; host or cells: E. coli BL21(DE3)pLysS
T1 sequence (Q16254 whole entry, the tested form may be a part): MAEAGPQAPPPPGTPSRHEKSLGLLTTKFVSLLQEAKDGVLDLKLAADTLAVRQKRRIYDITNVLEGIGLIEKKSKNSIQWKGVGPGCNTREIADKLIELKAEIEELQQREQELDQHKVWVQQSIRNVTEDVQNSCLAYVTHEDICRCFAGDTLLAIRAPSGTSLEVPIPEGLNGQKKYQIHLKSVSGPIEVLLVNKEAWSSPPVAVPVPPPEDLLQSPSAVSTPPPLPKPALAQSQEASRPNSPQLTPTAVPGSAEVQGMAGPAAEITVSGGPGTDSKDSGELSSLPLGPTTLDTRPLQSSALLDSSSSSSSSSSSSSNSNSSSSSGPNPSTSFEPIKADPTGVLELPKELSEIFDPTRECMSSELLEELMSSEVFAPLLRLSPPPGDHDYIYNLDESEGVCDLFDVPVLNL
Source text: (§1) The gene encoding E2F-4 protein was engineered into an E. coli expression system as a GST fusion protein (GST-E2F-4) and purified by affinity interaction using glutathione Sepharose beads. The GST-E2F-4 was immobilized on a CM5 sensor chip using the same procedure as described for the synthetic ETBP.
The 1239-bp cDNA fragment of E2F-4 was amplified from I.M.A.G.E cDNA clone (clone ID CL0B005ZB12, Invitrogen) by PCR with the primers 5’-[…]-3’ (up) and 5’-[…]-3’ (down) and subcloned into pGEM-T vector (Promega). Following purification and digestion with EcoRI and XhoI, the cDNA fragment was subcloned into the expression vector pET28a(+) (Novagen). The construct was transformed into E. coli BL21(DE3)pLysS (Novagen). Heterologous gene expression was induced by addition of 0.1 mM isopropyl β-D-1-thiogaractopyranoside (IPTG). The culture was continued at 37 °C with vigorous shaking for 1 h. The cells were then harvested and suspended in binding buffer (0.5 M NaCl, 5 mM 2-mercaptoethanol in 50 mM sodium phosphate, pH 7.5). Following sonication and centrifugation the soluble fraction was obtained and purified using the FPLC instrument and GSTrap column (1 mL, GE Healthcare) and then subjected to kinetic analysis by SPR. The purified GST-E2F-4 in resulting fraction was detected by a SDS-PAGE followed by CBB staining or Western blotting using rabbit anti-GST (primary) and anti-rabbit IgG-AP conjugate (secondary) antibodies (Sigma-Aldrich) with BCIP/NBT solution.
(§2) Analysis of binding between etopside and synthetic ETBP or recombinant GST-E2F-4 was performed with a surface plasmon resonance (SPR) biosensor (Biacore®3000, GE Healthcare). The synthetic ETBP or protein dissolved in each buffer (ETBP16: 10 mM acetate buffer, pH 4.0−10% DMSO; ETBP10, HG102: 10 mM carbonate buffer, pH 8.5; protein: 10 mM acetate buffer, pH 4.0) was injected over a CM5 sensor chip at 10 µL/min and captured on the carboxymethyl dextran matrix via an amine coupling reaction. The surface was activated by injecting a solution containing 200 mM EDC and 50 mM NHS for 14 min. The protein or peptide was injected and the surface was then blocked by injecting 1 M ethanolamine at pH 8.5 for 14 min. […] BIAevaluation 3.2 software (GE Healthcare) was used to determine the kinetic parameters.

[1] = system: control peptide HG102 (SGVMLGDPN); assay: SPR interaction analysis between etoposide and control peptide HG102; format: binding; settings: etoposide 3.2-80 µM injected
Procedure: Synthetic ETBP16 or ETBP10 was immobilized on a CM5 censor chip by an amine coupling reaction. […] By contrast, no response was observed against a control peptide HG102 ([…]).
Analysis of binding between etopside and synthetic ETBP or recombinant GST-E2F-4 was performed with a surface plasmon resonance (SPR) biosensor (Biacore®3000, GE Healthcare). The synthetic ETBP or protein dissolved in each buffer (ETBP16: 10 mM acetate buffer, pH 4.0−10% DMSO; ETBP10, HG102: 10 mM carbonate buffer, pH 8.5; protein: 10 mM acetate buffer, pH 4.0) was injected over a CM5 sensor chip at 10 µL/min and captured on the carboxymethyl dextran matrix via an amine coupling reaction. The surface was activated by injecting a solution containing 200 mM EDC and 50 mM NHS for 14 min. The protein or peptide was injected and the surface was then blocked by injecting 1 M ethanolamine at pH 8.5 for 14 min. This reaction immobilized 1279 resonance units (RU) of ETBP16, 3400 RU of ETBP10, 350 RU of HG102, 11421 RU of GST-E2F-4, 4388 RU of GST, and 7500 RU of top II (usb). […] BIAevaluation 3.2 software (GE Healthcare) was used to determine the kinetic parameters.

CHO-K1 cells = assay: MTS assay of cell proliferation; format: cell-based; settings: concentrations used in the reporter assay; data not shown
GST = GST (Schistosoma japonicum, UniProt P08515); assay: SPR interaction analysis with immobilized GST tag alone; format: binding; settings: etoposide 2.5-100 µM injected
Sequence of GST (P08515 whole entry): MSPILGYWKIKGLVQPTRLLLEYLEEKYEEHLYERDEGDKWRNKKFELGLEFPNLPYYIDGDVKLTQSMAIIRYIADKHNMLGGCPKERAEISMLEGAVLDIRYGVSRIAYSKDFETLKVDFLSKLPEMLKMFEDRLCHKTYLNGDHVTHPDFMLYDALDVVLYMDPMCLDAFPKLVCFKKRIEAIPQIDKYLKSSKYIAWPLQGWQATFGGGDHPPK
Procedure: as §1, §2

E2F-4/DP1 = biological target: T2, E2F-4/DP1 (Homo sapiens, UniProt Q16254); assay: Luciferase reporter gene assay, E2F-4/DP1 expressing CHO-K1 cells; format: cell-based; settings: 15 h incubation, read-out: IC50 of reporter gene transcription, E2F-4/DP1
T2 construct: expressed in transfected cells; host or cells: CHO-K1
T2 sequence (Q16254 whole entry, species assumed): as the sequence (Q16254 whole entry, the tested form may be a part) above
Source text: (§3) E2F-4 functions as a transcription factor, forming a heterodimeric complex with DP via the DP binding domain (G86-I181) (Figure 9).
(§4) The vectors (pCMV-E2F-4, pCMV-DP1, pCMV-DP2) for the luciferase reporter gene assay were kindly provided by Dr. Junji Magae (Institute of Research and Innovation (IRI), Kashiwa, Chiba, Japan) The reporter gene plasmid (pGL3-GC box) was constructed by insertion of double stranded DNA with XhoI and HindIII site, which was generated by an annealing of 60 pmol of oligonucleotides 5’-[…]-3’ and 5’-[…]-3’ into pGL3 vector (Promega). Transfection was then performed using Lipofectamine 2000 (Invitrogen) in a 96-well format according to the manufacturer’s instructions (Invitrogen).

E2F-4/DP2 = biological target: T3, E2F-4/DP2 (Homo sapiens, UniProt Q16254); assay: Luciferase reporter gene assay, E2F-4/DP2 expressing CHO-K1 cells; format: cell-based; settings: 15 h incubation, read-out: IC50 of reporter gene transcription, E2F-4/DP2
T3 construct: expressed in transfected cells; host or cells: CHO-K1
T3 sequence (Q16254 whole entry, species assumed): as the sequence (Q16254 whole entry, the tested form may be a part) above
Source text: as §3, §4

[2] = SPR, read-out: KD between GST-E2F-4 and each compound

COc1cc(C(=O)O)cc(OC)c1O [Syringic acid]
SPR response against GST-E2F-4 (GST-E2F-4; in the concentration range tested): no response

COc1cc([C@@H]2c3cc4c(cc3[C@H](O)[C@H]3COC(=O)[C@H]23)OCO4)cc(OC)c1OC [Podophyllotoxin, podophyllotoxin]
Kd (GST-E2F-4): 308 µM | affinity for E2F-4, fold weaker than that of etoposide (GST-E2F-4; SPR): approximately four

COc1cc([C@@H]2c3cc4c(cc3[C@@H](O[C@@H]3O[C@@H]5CO[C@@H](C)O[C@H]5[C@H](O)[C@H]3O)[C@H]3COC(=O)[C@H]23)OCO4)cc(OC)c1O [Etoposide]
SPR response against control peptide HG102 [1]: no response | effect in terms of cell growth in MTS assay (CHO-K1 cells): no effect | SPR response against GST tag alone (GST): did not show any response | Kd (GST-E2F-4; [2]): 75 µM | IC50 (E2F-4/DP1): 1.56 µM | IC50 (E2F-4/DP2): 1.16 µM

COc1cc([C@@H]2c3cc4c(cc3[C@@H](O[C@@H]3O[C@@H]5CO[C@@H](c6cccs6)O[C@H]5[C@H](O)[C@H]3O)[C@H]3COC(=O)[C@H]23)OCO4)cc(OC)c1O [Teniposide, teniposide]
affinity for E2F-4, fold weaker than that of etoposide (GST-E2F-4; SPR): nine | Kd (GST-E2F-4; [2]): 654 µM
